In US6569875B1, “Fungicide mixtures based on pyridin carboxamides and benzimidazoles or the precursors thereof” (priority 1997, dated 2003):

system: Botrytis cinerea; experiment: Activity against Botrytis cinerea on bell pepper leaves (sprayed green bell pepper fruit disks, protective); format: in vivo; conditions: single active ingredient, 4 ppm in the spray liquor, inoculated 2 hours after spray coating dried, 18° C., 4 days, visual evaluation
Method: The active ingredients, separately or together, are formulated as a 10% emulsion in a mixture of 63% by weight of cyclohexanone and 27% by eight of emulsifier, and diluted with water to the desired concentration.
Evaluation is carried out by determining the infected leaf areas in percent. These percentages are converted into efficacies. The efficacy (W) is calculated as follows using Abbot's formula: […]
α corresponds to the fungal infection of the treated plants in % and β corresponds to the fungal infection of the untreated (control) plants in % An efficacy of 0 means that the infection level of the treated plants corresponds to that of the untreated control plants; an efficacy of 100 means that the treated plants were not infected.
The expected efficacies of the mixtures of the active ingredients were determined using Colby's formula [R. S. Colby, Weeds 15, 20-22 (1967)] and compared with the observed efficacies.
Colby formula: E=x+Y−x·y/100
E expected efficacy, expressed in % of the untreated control, when using the mixture of the active ingredients A and B at the concentrations a and b x efficacy, expressed in % of the untreated control, when using active ingredient A at the concentration a y efficacy, expressed in % of the untreated control, when using active ingredient B at the concentration b Disks of green bell peppers were sprayed to runoff point with an aqueous preparation of active ingredient which had been prepared from a stock solution comprising 10% of active ingredient, 63% of cyclohexanone and 27% of emulsifier. 2 hours after the spray coating had dried on, the fruit disks were inoculated with a spore suspension of Botrytis cinerea containing 1.7×10^6 spores per ml of a 2% strength Biomalz solution. The inoculated fruit disks were subsequently incubated in humid chambers at 18° C. for 4 days. The Botyrtis infection on the diseased fruit disks was then evaluated visually.

`COC(=O)NC(=S)Nc1ccccc1NC(=S)NC(=O)OC` [Compound II.f, dimethyl 4,4′-(o-phenylene)-bis(3-thioallophanate)] and `CCCCNC(=O)n1c(NC(=O)OC)nc2ccccc21` [Compound II.a, methyl 1-(butylcarbamoyl)benzimidazol-2-ylcarbamate] are the same in “Efficacy in % of the untreated control” value: 10% for the first, 10% for the second.

First: O=C(Nc1ccccc1-c1ccc(Cl)cc1)c1cccnc1Cl [Compound I.2]
Second: O=C(Nc1ccccc1-c1ccc(F)cc1)c1cccnc1Cl [Compound I.1]
The “Efficacy in % of the untreated control” value of the first is higher: 40% for the first, 0% for the second.
